Laboratory results published in article PMC8876231, “Analogues of Natural Chalcones as Efficient Inhibitors of AKR1C3” (Metabolites, 2022).
Several values for one entry are separate records, joined by “and”; a condition that tells them apart may be missing. Identical values can stand only once.

Columns and labels:
AKR1C3 [1] = details: co-crystallised ligand of PDB 3UWE; cited from earlier work
AKR1C3 [2] = biological target: T1, AKR1C3 (Homo sapiens, UniProt P42330); test: AKR1C3 enzymatic inhibition assay (∆4-androstene-3,17-dione to testosterone); assay type: biochemical; details: 10 µM compound, ∆4-androstene-3,17-dione reduction, triplicates, mean ± SD
T1 construct: GST (own knowledge: pGEX vectors encode N-terminal GST); made in house; host or cells: E. coli BL21 DE3 Codon Plus RP, lysate
T1 sequence (P42330 1-323): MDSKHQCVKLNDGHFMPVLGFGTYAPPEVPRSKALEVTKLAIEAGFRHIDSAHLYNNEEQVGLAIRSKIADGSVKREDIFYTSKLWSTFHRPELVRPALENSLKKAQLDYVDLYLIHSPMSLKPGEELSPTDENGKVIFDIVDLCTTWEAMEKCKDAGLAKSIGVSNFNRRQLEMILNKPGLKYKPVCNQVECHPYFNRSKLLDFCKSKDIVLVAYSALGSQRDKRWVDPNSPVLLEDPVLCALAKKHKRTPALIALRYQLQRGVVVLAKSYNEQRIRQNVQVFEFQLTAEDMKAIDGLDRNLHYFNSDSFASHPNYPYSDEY
Source text: For enzymatic assays and inhibitor testing, all enzymes were cloned into bacterial or mammalian expression vectors. AKR1C3 and the human hydroxysteroid dehydrogenases HSD17B1, HSD17B2, HSD17B4 (SDR domain), HSD17B7, and HSD17B10 were cloned into a pGEX vector as described in [71, 72]. The coding sequences for AKR1C1, AKR1C2, and AKR1C4 were cloned by Gateway technology into the pcDNA3-N-MycDest vector according to the manufacturer’s instructions (Life Technologies, Carlsbad, CA, USA). The p11 plasmid coding for HSD17B14 (S205 variant) was a gift from Udo Opperman SGC Oxford, UK. For assays with HSD17B3, HEK293 cells stably expressing HSD17B3 were used. Enzymes were expressed in E. coli BL21 DE3 or E. coli BL21 DE3 Codon Plus RP (Stratagene, San Diego, CA, USA) or in HEK293 cells as described in [71, 72, 73]. Bacterial and cell pellets were stored at −20 °C and −80 °C, respectively, until use.
Inhibition assays were carried out as described in [71, 74]. […] For a detailed assay setup, see Supplementary Table S6. The incubation at 37 °C was stopped with 0.21 M ascorbic acid in methanol:acetic acid 99:1 (v:v) after the time needed to convert approximately 30% of the substrate in a control assay with 1% DMSO, without inhibitor candidate. Substrates and products were extracted from the reaction mixture by solid-phase extraction using C18 cartridges (Phenomenex, Aschaffenburg, Germany) and separated by RP–HPLC in a Beckman–Coulter HPLC Gold system, using the Luna 5 µm C18(2), 125 × 4.0 mm column (Phenomenex). The mobile phases used were H2O:ACN (57:43 (v:v); for assays of estrone (E1) to oestradiol (E2), E2 to E1, and ∆4-androstene-3,17-dione to testosterone conversion), H2O:ACN (49:51 (v:v); for assays of progesterone to 20α-hydroxyprogesterone conversion), and H2O:MeOH (35:65 (v:v) for assays of dihydrotestosterone (DHT) to 3α-androstanediol conversion) at a flow rate of 1 mL/min. Radioactivity was detected by online scintillation counting by using a radioactivity monitor (LB506D, Berthold Technologies, Bad Wildbad, Germany). Conversion of substrates to products was determined by integration of the peak area of the substrate and product peaks in percent. For calculation of inhibition, the conversion of control assay (assay without inhibitor) was set to 0% inhibition. All assays were run in triplicates, and mean values ± SD are reported.
For the determination of IC50 values, percent inhibition values were fitted using the Enzyme Kinetics module of SigmaPlot 13.0 and the one-site ligand-binding model according to the formula f = Bmax * abs(x)/(Kd + abs(x)).
Table S6: Activity assay setup […]
E1: estrone; E2: 17β-estradiol, A: Δ4-androstene-3,17-dione; T: testosterone, P: progesterone, 20αOHP: 20α-hydroxyprogesterone, DHT: dihydrotestosterone, 3α-Adiol: 3α-androstanediol, NaPi: 100 mM Na-phosphate buffer; PI: C0mplete protease inhibitor (Roche);. E.coli - Expression in E.coli BL21 DE3 Codon Plus RP except E.coli BL21 DE3 […]
application to antiparasitic and natural product synthesis. Eur J Org Chem […]
Synthesis of Xanthohumol analogues and discovery of potent thioredoxin reductase inhibitor as potential anticancer agent. J Med Chem 2015, 58,

aromatase = biological target: aromatase; set-up: method as in PMID 11205867; details: human placental microsomes; cited from earlier work
17β-HSD = system: 17β-HSD; set-up: method as in PMID 11205867; details: human placental microsomes, compound concentration 10 µM; cited from earlier work
DU145 = system: DU145; set-up: method as in PMID 12706007; details: human prostate cancer cell line DU145; read-out: IC50 growth inhibition DU145; cited from earlier work
LNCaP = system: LNCaP; set-up: method as in PMID 12706007; details: human prostate cancer cell line LNCaP; read-out: IC50 growth inhibition LNCaP; cited from earlier work

In the case of `O=C(O)c1cccc(Oc2ccccc2)c1` [3-phenoxybenzoic acid], the IC50 (AKR1C3 [1]) is listed as 0.68 µM.
`O=C(/C=C/c1ccc(O)c(O)c1)c1ccc(O)cc1O` [Butein (17), butein, reference compound] gave an inhibition at 10 µM (AKR1C3 [2]) of 37.2 ± 1.4%.
With `O=C(/C=C/c1ccc(Cl)cc1)c1c(O)cc(O)cc1O` [Compound 22] the “AKR1C3 Inhibition at 10 µM [%]” value (AKR1C3 [2]) was 70.8 ± 3.8%.
With `COc1cc(O)cc(O)c1C(=O)/C=C/c1ccc(O)cc1` [Compound 24] the “AKR1C3 Inhibition at 10 µM [%]” value (AKR1C3 [2]) was 24.6 ± 4.8%.
For `O=C(/C=C/c1ccc(F)cc1)c1c(O)cc(O)cc1O` [Compound 26], the “AKR1C3 Inhibition at 10 µM [%]” value (AKR1C3 [2]) was 68.5 ± 6.4%.
With `COc1cc(O)cc(O)c1C(=O)/C=C/c1ccc(F)cc1` [Compound 27] the “AKR1C3 Inhibition at 10 µM [%]” value (AKR1C3 [2]; 10 µM) was 26.1% and 20.3 ± 8.4%.
In the case of `COc1cc(O)cc(O)c1C(=O)/C=C/c1ccc(Cl)cc1` [Compound 28], the “AKR1C3 Inhibition at 10 µM [%]” value (AKR1C3 [2]; 10 µM) is reported as 20.3% and 26.1 ± 2.0%.
In the case of `O=C(/C=C/c1ccc(O)cc1)c1c(O)cc(O)cc1O` [Compound 29, naringenin chalcone], the “AKR1C3 Inhibition at 10 µM [%]” value (AKR1C3 [2]) is given as 40.6 ± 7.7%, the IC50 (aromatase) is given as 2.6 µM and the 17β-HSD inhibition (17β-HSD) is given as 2.4%.
For `O=C(/C=C/c1ccc(O)cc1)c1ccc(O)cc1O` [Isoliquiritigenin (16), isoliquiritigenin, reference compound], the IC50 (DU145) is given as 11 µM, the inhibition at 10 µM (AKR1C3 [2]) is given as 31.1 ± 3.2% and the 17β-HSD inhibition (17β-HSD) is given as 10%. The IC50 (LNCaP) was 13 µM.
